Assay results published in the supplement of paper PMC10307832.

Columns and labels:
Assay in all cases: relative viability (nuclei count vs DMSO), 5 days (fraction); higher = more cells survive
NCI-H596 = test system: NCI-H596
Method in brief: (§1)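 Each reported value is a median over duplicate plates. It expresses relative viability: treated-well nuclei count divided by vehicle-well nuclei count. Lung cancer cell lines in 1536-well plates were dosed by pin tool a day after seeding, alone with one drug or with a fixed anchor-drug dose plus five library-drug doses (not always all listed) in √10 steps, and nuclei were counted after 5 days.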

PC-3 [JPC-3] = test system: PC-3 [JPC-3]
Method in brief: as §1

NCI-H1915 = test system: NCI-H1915
Method in brief: as §1

NCI-H2087 = test system: NCI-H2087
Method in brief: as §1

201T = test system: 201T
Method in brief: as §1

NCI-H650 = test system: NCI-H650
Method in brief: as §1

BEN = test system: BEN
Method in brief: as §1

LCLC-97TM1 = test system: LCLC-97TM1
Method in brief: as §1

NCI-H441 = test system: NCI-H441
Method in brief: as §1

NCI-H460 = test system: NCI-H460
Method in brief: as §1

NCI-H1944 = test system: NCI-H1944
Method in brief: as §1

NCI-H727 = test system: NCI-H727
Method in brief: as §1

A-427 = test system: A-427
Method in brief: as §1

ABC-1 = test system: ABC-1
Method in brief: as §1

NCI-H1651 = test system: NCI-H1651
Method in brief: as §1

H3255 = test system: H3255
Method in brief: as §1

LC-2-ad = test system: LC-2-ad
Method in brief: as §1

NCI-H661 = test system: NCI-H661
Method in brief: as §1

NCI-H2023 = test system: NCI-H2023
Method in brief: as §1

CAL-12T = test system: CAL-12T
Method in brief: as §1

NCI-H520 = test system: NCI-H520
Method in brief: as §1

Compound `Nc1ccn([C@@H]2O[C@H](CO)[C@@H](O)[C@@H]2O)c(=O)n1` [Cytarabine] + C[C@]1(O)C[C@@H](c2nc(-c3ccc4ccc(-c5ccccc5)nc4c3)c3c(N)nccn32)C1 [Linsitinib] (partner 1 µM) has a relative viability (NCI-H596; first compound 0.005 µM) of 1.03, a relative viability (NCI-H596; first compound 0.01581 µM) of 0.857 and a relative viability (NCI-H596; first compound 0.05 µM) of 0.763. It also gave a relative viability (NCI-H596; first compound 0.1581 µM) of 0.658, a relative viability (NCI-H596; first compound 0.5 µM) of 0.628 and a relative viability (PC-3 [JPC-3]; first compound 0.005 µM) of 0.889. It also gave a relative viability (PC-3 [JPC-3]; first compound 0.01581 µM) of 0.903, a relative viability (PC-3 [JPC-3]; first compound 0.05 µM) of 0.866 and a relative viability (PC-3 [JPC-3]; first compound 0.1581 µM) of 0.691. For the same compound, the relative viability (PC-3 [JPC-3]; first compound 0.5 µM) was 0.65, the relative viability (NCI-H1915; first compound 0.005 µM) was 1.1 and the relative viability (NCI-H1915; first compound 0.01581 µM) was 0.979. The relative viability (NCI-H1915; first compound 0.05 µM) was 0.842, the relative viability (NCI-H1915; first compound 0.1581 µM) was 0.54 and the relative viability (NCI-H1915; first compound 0.5 µM) was 0.388. The relative viability (NCI-H2087; first compound 0.005 µM) was 0.958, the relative viability (NCI-H2087; first compound 0.01581 µM) was 1.07 and the relative viability (NCI-H2087; first compound 0.05 µM) was 0.827. The relative viability (NCI-H2087; first compound 0.1581 µM) was 0.752, the relative viability (NCI-H2087; first compound 0.5 µM) was 0.623 and the relative viability (201T; first compound 0.005 µM) was 1.1. It also gave a relative viability (201T; first compound 0.01581 µM) of 1.02, a relative viability (201T; first compound 0.05 µM) of 1.03 and a relative viability (201T; first compound 0.1581 µM) of 0.9. It also gave a relative viability (201T; first compound 0.5 µM) of 0.886, a relative viability (NCI-H650; first compound 0.005 µM) of 0.763 and a relative viability (NCI-H650; first compound 0.01581 µM) of 0.475. It also gave a relative viability (NCI-H650; first compound 0.05 µM) of 0.379, a relative viability (NCI-H650; first compound 0.1581 µM) of 0.209 and a relative viability (NCI-H650; first compound 0.5 µM) of 0.234. For the same compound, the relative viability (BEN; first compound 0.005 µM) was 0.616, the relative viability (BEN; first compound 0.01581 µM) was 0.775 and the relative viability (BEN; first compound 0.05 µM) was 0.557. It also gave a relative viability (BEN; first compound 0.1581 µM) of 0.423, a relative viability (BEN; first compound 0.5 µM) of 0.307 and a relative viability (LCLC-97TM1; first compound 0.005 µM) of 0.167. For the same compound, the relative viability (LCLC-97TM1; first compound 0.01581 µM) was 0.148, the relative viability (LCLC-97TM1; first compound 0.05 µM) was 0.111 and the relative viability (LCLC-97TM1; first compound 0.1581 µM) was 0.101. For the same compound, the relative viability (LCLC-97TM1; first compound 0.5 µM) was 0.0967, the relative viability (NCI-H441; first compound 0.005 µM) was 0.467 and the relative viability (NCI-H441; first compound 0.01581 µM) was 0.476. For the same compound, the relative viability (NCI-H441; first compound 0.05 µM) was 0.406, the relative viability (NCI-H441; first compound 0.1581 µM) was 0.232 and the relative viability (NCI-H441; first compound 0.5 µM) was 0.122. It also gave a relative viability (NCI-H460; first compound 0.005 µM) of 0.509, a relative viability (NCI-H460; first compound 0.01581 µM) of 0.514 and a relative viability (NCI-H460; first compound 0.05 µM) of 0.231. It also gave a relative viability (NCI-H460; first compound 0.1581 µM) of 0.0385, a relative viability (NCI-H460; first compound 0.5 µM) of 0.0239 and a relative viability (NCI-H1944; first compound 0.005 µM) of 1.1. The relative viability (NCI-H1944; first compound 0.01581 µM) was 0.492, the relative viability (NCI-H1944; first compound 0.05 µM) was 0.424 and the relative viability (NCI-H1944; first compound 0.1581 µM) was 0.216. The relative viability (NCI-H1944; first compound 0.5 µM) was 0.195, the relative viability (NCI-H727; first compound 0.005 µM) was 0.251 and the relative viability (NCI-H727; first compound 0.01581 µM) was 0.254. The relative viability (NCI-H727; first compound 0.05 µM) was 0.318, the relative viability (NCI-H727; first compound 0.1581 µM) was 0.19 and the relative viability (NCI-H727; first compound 0.5 µM) was 0.215. The relative viability (A-427; first compound 0.005 µM) was 0.909, the relative viability (A-427; first compound 0.01581 µM) was 0.654 and the relative viability (A-427; first compound 0.05 µM) was 0.342. For the same compound, the relative viability (A-427; first compound 0.1581 µM) was 0.181, the relative viability (A-427; first compound 0.5 µM) was 0.196 and the relative viability (ABC-1; first compound 0.005 µM) was 0.699. It also gave a relative viability (ABC-1; first compound 0.01581 µM) of 0.99, a relative viability (ABC-1; first compound 0.05 µM) of 0.909 and a relative viability (ABC-1; first compound 0.1581 µM) of 0.71. The relative viability (ABC-1; first compound 0.5 µM) was 0.487, the relative viability (NCI-H1651; first compound 0.005 µM) was 0.916 and the relative viability (NCI-H1651; first compound 0.01581 µM) was 0.98. It also gave a relative viability (NCI-H1651; first compound 0.05 µM) of 1.11, a relative viability (NCI-H1651; first compound 0.1581 µM) of 0.468 and a relative viability (NCI-H1651; first compound 0.5 µM) of 0.327. The relative viability (H3255; first compound 0.005 µM) was 0.945, the relative viability (H3255; first compound 0.01581 µM) was 0.885 and the relative viability (H3255; first compound 0.05 µM) was 0.808. It also gave a relative viability (H3255; first compound 0.1581 µM) of 0.784, a relative viability (H3255; first compound 0.5 µM) of 0.674 and a relative viability (LC-2-ad; first compound 0.005 µM) of 0.851. The relative viability (LC-2-ad; first compound 0.01581 µM) was 0.79, the relative viability (LC-2-ad; first compound 0.05 µM) was 0.677 and the relative viability (LC-2-ad; first compound 0.1581 µM) was 0.442. For the same compound, the relative viability (LC-2-ad; first compound 0.5 µM) was 0.223, the relative viability (NCI-H661; first compound 0.005 µM) was 0.624 and the relative viability (NCI-H661; first compound 0.01581 µM) was 0.529. For the same compound, the relative viability (NCI-H661; first compound 0.05 µM) was 0.445, the relative viability (NCI-H661; first compound 0.1581 µM) was 0.286 and the relative viability (NCI-H661; first compound 0.5 µM) was 0.21. It also gave a relative viability (NCI-H2023; first compound 0.005 µM) of 0.492, a relative viability (NCI-H2023; first compound 0.01581 µM) of 0.302 and a relative viability (NCI-H2023; first compound 0.05 µM) of 0.149. For the same compound, the relative viability (NCI-H2023; first compound 0.1581 µM) was 0.0967, the relative viability (NCI-H2023; first compound 0.5 µM) was 0.0876 and the relative viability (CAL-12T; first compound 0.005 µM) was 0.72. The relative viability (CAL-12T; first compound 0.01581 µM) was 0.878, the relative viability (CAL-12T; first compound 0.05 µM) was 0.747 and the relative viability (CAL-12T; first compound 0.1581 µM) was 0.39. The relative viability (CAL-12T; first compound 0.5 µM) was 0.203, the relative viability (NCI-H520; first compound 0.005 µM) was 0.556 and the relative viability (NCI-H520; first compound 0.01581 µM) was 1.09. The relative viability (NCI-H520; first compound 0.05 µM) was 0.952, the relative viability (NCI-H520; first compound 0.1581 µM) was 0.751 and the relative viability (NCI-H520; first compound 0.5 µM) was 0.752.
